Data taken from PubChem BioAssay (NCI).
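Interpolation was linear, between the two tested concentrations surrounding the appropriate level; five concentrations were tested over 48 hours in 96-well plates. Abbreviation: GI50, concentration required for 50% inhibition of growth. TGI marks complete inhibition of growth.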

Tests used:
Experiment in all cases: NCI tumour cell line growth inhibition, 48 h
786-0 renal = tested on: 786-0 renal
A498 renal = tested on: A498 renal
A549 NSCLC = tested on: A549 NSCLC
ACHN renal = tested on: ACHN renal
BT-549 breast = tested on: BT-549 breast
CAKI-1 renal = tested on: CAKI-1 renal
CCRF-CEM leukemia = tested on: CCRF-CEM leukemia
COLO 205 colon = tested on: COLO 205 colon
DU-145 prostate = tested on: DU-145 prostate
EKVX NSCLC = tested on: EKVX NSCLC
HCC-2998 colon = tested on: HCC-2998 colon
HCT-116 colon = tested on: HCT-116 colon
HCT-15 colon = tested on: HCT-15 colon
HL-60(TB) leukemia = tested on: HL-60(TB) leukemia
HOP-62 NSCLC = tested on: HOP-62 NSCLC
HOP-92 NSCLC = tested on: HOP-92 NSCLC
HS 578T breast = tested on: HS 578T breast
HT29 colon = tested on: HT29 colon
IGROV1 ovarian = tested on: IGROV1 ovarian
K-562 leukemia = tested on: K-562 leukemia
KM12 colon = tested on: KM12 colon
LOX IMVI melanoma = tested on: LOX IMVI melanoma
M14 melanoma = tested on: M14 melanoma
MALME-3M melanoma = tested on: MALME-3M melanoma
MCF7 breast = tested on: MCF7 breast
MDA-MB-231 breast = tested on: MDA-MB-231 breast
MDA-MB-435 = tested on: MDA-MB-435
MOLT-4 leukemia = tested on: MOLT-4 leukemia
NCI-H226 lung = tested on: NCI-H226 lung
NCI-H23 lung = tested on: NCI-H23 lung
NCI-H460 lung = tested on: NCI-H460 lung
NCI-H522 lung = tested on: NCI-H522 lung
NCI/ADR-RES ovarian = tested on: NCI/ADR-RES ovarian
OVCAR-3 ovarian = tested on: OVCAR-3 ovarian
OVCAR-4 ovarian = tested on: OVCAR-4 ovarian
OVCAR-5 ovarian = tested on: OVCAR-5 ovarian
OVCAR-8 ovarian = tested on: OVCAR-8 ovarian
PC-3 prostate = tested on: PC-3 prostate
RPMI-8226 leukemia = tested on: RPMI-8226 leukemia
RXF 393 renal = tested on: RXF 393 renal
SF-268 CNS = tested on: SF-268 CNS
SF-295 CNS = tested on: SF-295 CNS
SF-539 CNS = tested on: SF-539 CNS
SK-MEL-2 melanoma = tested on: SK-MEL-2 melanoma
SK-MEL-28 melanoma = tested on: SK-MEL-28 melanoma
SK-MEL-5 melanoma = tested on: SK-MEL-5 melanoma
SK-OV-3 ovarian = tested on: SK-OV-3 ovarian
SN12C renal = tested on: SN12C renal
SNB-19 CNS = tested on: SNB-19 CNS
SNB-75 CNS = tested on: SNB-75 CNS
SR leukemia = tested on: SR leukemia
SW-620 colon = tested on: SW-620 colon
T-47D breast = tested on: T-47D breast
TK-10 renal = tested on: TK-10 renal
U251 CNS = tested on: U251 CNS
UACC-257 melanoma = tested on: UACC-257 melanoma
UACC-62 melanoma = tested on: UACC-62 melanoma
UO-31 renal = tested on: UO-31 renal

Molecule `Cc1cccc2c3c(sc12)C(c1ccc(F)cc1)C(C#N)=C(/N=C/c1ccc(Cl)cc1)O3` (stereo unspecified) has a GI50 (786-0 renal) of 601 nM, a TGI (786-0 renal) of 12500 nM and a GI50 (A498 renal) of 10600 nM. For the same molecule, the TGI (A498 renal) was 42000 nM, the GI50 (A549 NSCLC) was 670 nM and the TGI (A549 NSCLC) was greater than 100000 nM. For the same molecule, the GI50 (ACHN renal) was 695 nM, the TGI (ACHN renal) was 15500 nM and the GI50 (BT-549 breast) was 907 nM. The TGI (BT-549 breast) was 3560 nM, the GI50 (CAKI-1 renal) was 389 nM and the TGI (CAKI-1 renal) was 15200 nM. For the same molecule, the GI50 (CCRF-CEM leukemia) was 404 nM, the TGI (CCRF-CEM leukemia) was greater than 37300 nM and the GI50 (COLO 205 colon) was 648 nM. The TGI (COLO 205 colon) was 2510 nM, the GI50 (DU-145 prostate) was 485 nM and the TGI (DU-145 prostate) was 19300 nM. It also gave a GI50 (EKVX NSCLC) of 1720 nM, a TGI (EKVX NSCLC) of 46100 nM and a GI50 (HCC-2998 colon) of 414 nM. The TGI (HCC-2998 colon) was 2470 nM, the GI50 (HCT-116 colon) was 384 nM and the TGI (HCT-116 colon) was 6300 nM. For the same molecule, the GI50 (HCT-15 colon) was 366 nM, the TGI (HCT-15 colon) was 10300 nM and the GI50 (HL-60(TB) leukemia) was 339 nM. It also gave a TGI (HL-60(TB) leukemia) of 971 nM, a GI50 (HOP-62 NSCLC) of 552 nM and a TGI (HOP-62 NSCLC) of 15100 nM. The GI50 (HOP-92 NSCLC) was 2190 nM, the TGI (HOP-92 NSCLC) was 15800 nM and the GI50 (HS 578T breast) was 426 nM. It also gave a TGI (HS 578T breast) of 10300 nM, a GI50 (HT29 colon) of 532 nM and a TGI (HT29 colon) of 5040 nM. It also gave a GI50 (IGROV1 ovarian) of 632 nM, a TGI (IGROV1 ovarian) of 19200 nM and a GI50 (K-562 leukemia) of 310 nM. For the same molecule, the TGI (K-562 leukemia) was 14200 nM, the GI50 (KM12 colon) was 417 nM and the TGI (KM12 colon) was 13200 nM. It also gave a GI50 (LOX IMVI melanoma) of 555 nM, a TGI (LOX IMVI melanoma) of 6300 nM and a GI50 (M14 melanoma) of 310 nM. The TGI (M14 melanoma) was 8380 nM, the GI50 (MALME-3M melanoma) was 720 nM and the TGI (MALME-3M melanoma) was 23200 nM. It also gave a GI50 (MCF7 breast) of 322 nM, a TGI (MCF7 breast) of 14000 nM and a GI50 (MDA-MB-231 breast) of 700 nM. The TGI (MDA-MB-231 breast) was 14800 nM, the GI50 (MDA-MB-435) was 175 nM and the TGI (MDA-MB-435) was 373 nM. It also gave a GI50 (MOLT-4 leukemia) of 476 nM, a TGI (MOLT-4 leukemia) of 14200 nM and a GI50 (NCI-H226 lung) of 434 nM. It also gave a TGI (NCI-H226 lung) of 2960 nM, a GI50 (NCI-H23 lung) of 536 nM and a TGI (NCI-H23 lung) of 16400 nM. For the same molecule, the GI50 (NCI-H460 lung) was 348 nM, the TGI (NCI-H460 lung) was 3560 nM and the GI50 (NCI-H522 lung) was 91.3 nM. For the same molecule, the TGI (NCI-H522 lung) was 372 nM, the GI50 (NCI/ADR-RES ovarian) was 302 nM and the TGI (NCI/ADR-RES ovarian) was 3490 nM. For the same molecule, the GI50 (OVCAR-3 ovarian) was 395 nM, the TGI (OVCAR-3 ovarian) was 5390 nM and the GI50 (OVCAR-4 ovarian) was 2270 nM. It also gave a TGI (OVCAR-4 ovarian) of 20100 nM, a GI50 (OVCAR-5 ovarian) of 516 nM and a TGI (OVCAR-5 ovarian) of 15400 nM. For the same molecule, the GI50 (OVCAR-8 ovarian) was 487 nM, the TGI (OVCAR-8 ovarian) was 4180 nM and the GI50 (PC-3 prostate) was 415 nM. The TGI (PC-3 prostate) was 13500 nM, the GI50 (RPMI-8226 leukemia) was 421 nM and the TGI (RPMI-8226 leukemia) was 7690 nM. The GI50 (RXF 393 renal) was 222 nM, the TGI (RXF 393 renal) was 664 nM and the GI50 (SF-268 CNS) was 1830 nM. It also gave a TGI (SF-268 CNS) of 16200 nM, a GI50 (SF-295 CNS) of 339 nM and a TGI (SF-295 CNS) of 11600 nM. For the same molecule, the GI50 (SF-539 CNS) was 277 nM, the TGI (SF-539 CNS) was 827 nM and the GI50 (SK-MEL-2 melanoma) was 317 nM. It also gave a TGI (SK-MEL-2 melanoma) of 17800 nM, a GI50 (SK-MEL-28 melanoma) of 1430 nM and a TGI (SK-MEL-28 melanoma) of 22600 nM. For the same molecule, the GI50 (SK-MEL-5 melanoma) was 488 nM, the TGI (SK-MEL-5 melanoma) was 3290 nM and the GI50 (SK-OV-3 ovarian) was 521 nM. The TGI (SK-OV-3 ovarian) was 41900 nM, the GI50 (SN12C renal) was 597 nM and the TGI (SN12C renal) was 12200 nM. The GI50 (SNB-19 CNS) was 552 nM, the TGI (SNB-19 CNS) was 19000 nM and the GI50 (SNB-75 CNS) was 275 nM. The TGI (SNB-75 CNS) was 3630 nM, the GI50 (SR leukemia) was 317 nM and the TGI (SR leukemia) was 13200 nM. It also gave a GI50 (SW-620 colon) of 383 nM, a TGI (SW-620 colon) of 13100 nM and a GI50 (T-47D breast) of 583 nM. The TGI (T-47D breast) was 53000 nM, the GI50 (TK-10 renal) was 20100 nM and the TGI (TK-10 renal) was 66200 nM. It also gave a GI50 (U251 CNS) of 423 nM, a TGI (U251 CNS) of 8760 nM and a GI50 (UACC-257 melanoma) of 3810 nM. For the same molecule, the TGI (UACC-257 melanoma) was 32200 nM, the GI50 (UACC-62 melanoma) was 354 nM and the TGI (UACC-62 melanoma) was 13400 nM. For the same molecule, the GI50 (UO-31 renal) was 572 nM and the TGI (UO-31 renal) was 15300 nM.
